Results: patent publication US8399502B2, “Analogs of indole-3-carbinol and their use as agents against infection” (priority 2008, dated 2013)
Values after ≈ are worked out from the molar mass of the structure shown.

Experiments:
Assay in all cases: microbe, parasite or virus in culture
Assay type in all cases: cell-based
[1] = system: Francisella tularensis (FT; Gram-negative); settings: read-out: MIC FT
[2] = system: Yersinia pestis (YP; Gram-negative); settings: read-out: MIC YP
[3] = system: Bacillus anthracis (BA; Gram-positive); settings: read-out: MIC BA
[4] = system: Brucella abortus (BAB; Gram-negative); settings: read-out: MIC BAB
[5] = system: Burkholderia pseudomallei (BP; Gram-negative); settings: read-out: MIC BP
[6] = system: Burkholderia mallei (BM; Gram-negative); settings: read-out: MIC BM

For Cc1c2[nH]c3ccc(F)cc3c2cc2c1[nH]c1ccc(F)cc12, the MIC [1] was 0.5 µg/mL (≈ 1.63 µM), the MIC [2] was > 16 µg/mL and the MIC [3] was 0.5 µg/mL (≈ 1.63 µM). For the same compound, the MIC [4] was 1 µg/mL (≈ 3.26 µM), the MIC [5] was > 16 µg/mL and the MIC [6] was > 16 µg/mL.

In the case of CCN(CC)CCOc1c2[nH]c3ccc(F)cc3c2cc2c1[nH]c1ccc(F)cc12, the MIC [1] is reported as 0.5 µg/mL (≈ 1.23 µM), the MIC [2] is reported as > 16 µg/mL and the MIC [3] is reported as 1 µg/mL (≈ 2.45 µM). The MIC [4] was 1 µg/mL (≈ 2.45 µM).

Fc1ccc2[nH]c3c(OCCN4CCCC4)c4[nH]c5ccc(F)cc5c4cc3c2c1 showed an MIC [1] of 0.5 µg/mL (≈ 1.23 µM), an MIC [2] of 8 µg/mL (≈ 19.7 µM) and an MIC [3] of 1 µg/mL (≈ 2.47 µM). The MIC [4] was 1 µg/mL (≈ 2.47 µM), the MIC [5] was > 16 µg/mL and the MIC [6] was > 16 µg/mL.

CC(CN(C)C)Oc1c2[nH]c3ccc(F)cc3c2cc2c1[nH]c1ccc(F)cc12 (centres unmarked) showed an MIC [1] of 0.5 µg/mL (≈ 1.27 µM), an MIC [2] of 16 µg/mL (≈ 40.7 µM) and an MIC [3] of 1 µg/mL (≈ 2.54 µM). The MIC [4] was 0.5 µg/mL (≈ 1.27 µM).

In the case of FC(F)(F)c1c2[nH]c3ccccc3c2cc2c1[nH]c1ccccc12, the MIC [1] is reported as 0.5 µg/mL (≈ 1.54 µM), the MIC [2] is reported as > 16 µg/mL and the MIC [3] is reported as 1 µg/mL (≈ 3.08 µM). The MIC [4] was 2 µg/mL (≈ 6.17 µM), the MIC [5] was > 16 µg/mL and the MIC [6] was > 16 µg/mL.

With COc1c2[nH]c3ccc(F)cc3c2c(N2CCCC2)c2c1[nH]c1ccc(F)cc12 the MIC [1] was 0.5 µg/mL (≈ 1.28 µM), the MIC [2] was > 16 µg/mL and the MIC [3] was 1 µg/mL (≈ 2.55 µM). For the same compound, the MIC [4] was 2 µg/mL (≈ 5.11 µM), the MIC [5] was > 16 µg/mL and the MIC [6] was > 16 µg/mL.

NCCCOc1c2[nH]c3ccc(F)cc3c2cc2c1[nH]c1ccc(F)cc12 showed an MIC [1] of 0.5 µg/mL (≈ 1.37 µM), an MIC [2] of 2 µg/mL (≈ 5.47 µM) and an MIC [3] of 0.5 µg/mL (≈ 1.37 µM). The MIC [4] was 0.5 µg/mL (≈ 1.37 µM), the MIC [5] was 8 µg/mL (≈ 21.9 µM) and the MIC [6] was 8 µg/mL (≈ 21.9 µM).

CN(C)CCOc1c2[nH]c3ccc(Cl)cc3c2cc2c1[nH]c1ccc(Cl)cc12 was tested, and the MIC [1] was 0.25 µg/mL (≈ 0.606 µM), the MIC [2] was 2 µg/mL (≈ 4.85 µM) and the MIC [3] was 0.5 to 1 µg/mL (≈ 1.21 to 2.43 µM). For the same compound, the MIC [4] was 0.5 µg/mL (≈ 1.21 µM), the MIC [5] was 16 µg/mL (≈ 38.8 µM) and the MIC [6] was 8 µg/mL (≈ 19.4 µM).

In the case of CN(C)CCOc1c2[nH]c3ccc(F)cc3c2c(Br)c2c1[nH]c1ccc(F)cc12, the MIC [1] is reported as 0.25 µg/mL (≈ 0.545 µM), the MIC [2] is reported as > 8 µg/mL and the MIC [3] is reported as 0.25 µg/mL (≈ 0.545 µM). For the same compound, the MIC [4] was 0.25 µg/mL (≈ 0.545 µM), the MIC [5] was > 8 µg/mL and the MIC [6] was > 8 µg/mL.

NCCCOc1c2[nH]c3ccc(Cl)cc3c2cc2c1[nH]c1ccc(Cl)cc12 showed an MIC [1] of 0.25 to 0.5 µg/mL (≈ 0.628 to 1.26 µM), an MIC [2] of 2 µg/mL (≈ 5.02 µM) and an MIC [3] of 0.5 µg/mL (≈ 1.26 µM). It also gave an MIC [4] of 0.5 µg/mL (≈ 1.26 µM), an MIC [5] of 8 µg/mL (≈ 20.1 µM) and an MIC [6] of 4 µg/mL (≈ 10 µM).

NC1CCN(CCCOc2c3[nH]c4ccc(F)cc4c3cc3c2[nH]c2ccc(F)cc23)CC1 was tested, and the MIC [1] was 0.125 to 0.5 µg/mL (≈ 0.279 to 1.11 µM), the MIC [2] was 2 µg/mL (≈ 4.46 µM) and the MIC [3] was 0.5 µg/mL (≈ 1.11 µM). For the same compound, the MIC [4] was 0.5 µg/mL (≈ 1.11 µM).

Compound N[C@H]1CCN(CCCOc2c3[nH]c4ccc(F)cc4c3cc3c2[nH]c2ccc(F)cc23)C1 has an MIC [1] of 0.5 µg/mL (≈ 1.15 µM), an MIC [2] of 4 µg/mL (≈ 9.21 µM) and an MIC [3] of 1 µg/mL (≈ 2.3 µM). For the same compound, the MIC [4] was 1 µg/mL (≈ 2.3 µM).

NCCOc1c2[nH]c3ccc(Cl)cc3c2cc2c1[nH]c1ccc(Cl)cc12 showed an MIC [1] of 0.5 µg/mL (≈ 1.3 µM), an MIC [2] of 2 µg/mL (≈ 5.2 µM) and an MIC [3] of 2 µg/mL (≈ 5.2 µM). It also gave an MIC [4] of 0.5 µg/mL (≈ 1.3 µM), an MIC [5] of 8 µg/mL (≈ 20.8 µM) and an MIC [6] of 4 µg/mL (≈ 10.4 µM).

With CN(C)CCCc1c2[nH]c3ccc(F)cc3c2cc2c1[nH]c1ccc(F)cc12 the MIC [1] was 1 µg/mL (≈ 2.65 µM), the MIC [2] was 8 µg/mL (≈ 21.2 µM) and the MIC [3] was 1 µg/mL (≈ 2.65 µM). The MIC [4] was 1 µg/mL (≈ 2.65 µM), the MIC [5] was > 16 µg/mL and the MIC [6] was 16 µg/mL (≈ 42.4 µM).

Compound NC1CCN(CCCOc2c3[nH]c4ccc(Cl)cc4c3cc3c2[nH]c2ccc(Cl)cc23)CC1 has an MIC [1] of 1 µg/mL (≈ 2.08 µM), an MIC [2] of 4 µg/mL (≈ 8.31 µM) and an MIC [3] of 2 µg/mL (≈ 4.15 µM). The MIC [4] was 1 µg/mL (≈ 2.08 µM), the MIC [5] was > 16 µg/mL and the MIC [6] was 16 µg/mL (≈ 33.2 µM).

NC1CCN(CCOc2c3[nH]c4ccc(Cl)cc4c3cc3c2[nH]c2ccc(Cl)cc23)CC1 showed an MIC [1] of 0.5 µg/mL (≈ 1.07 µM), an MIC [2] of 16 µg/mL (≈ 34.2 µM) and an MIC [3] of 2 µg/mL (≈ 4.28 µM). The MIC [4] was 1 µg/mL (≈ 2.14 µM).

For OC1CCN(CCCOc2c3[nH]c4ccc(F)cc4c3cc3c2[nH]c2ccc(F)cc23)C1 (centres unmarked), the MIC [1] was 0.5 µg/mL (≈ 1.15 µM), the MIC [2] was 8 µg/mL (≈ 18.4 µM) and the MIC [3] was 0.5 µg/mL (≈ 1.15 µM). The MIC [4] was 0.251 µg/mL (≈ 0.576 µM), the MIC [5] was 8 µg/mL (≈ 18.4 µM) and the MIC [6] was 8 µg/mL (≈ 18.4 µM).
